In publication PMC8286840, “Identifying SARS-CoV-2 antiviral compounds by screening for small molecule inhibitors of Nsp3 papain-like protease” (Biochemical Journal, 2021) one finds remaining activity data, which are given here for 16 molecules.

Counter-ions that a name gives are not always drawn. Like-named read-outs stand apart in the source and are kept apart here.

For assay [1], the target named is T1, SARS-CoV-2 PLpro (nsp3 1564–1878) (Severe acute respiratory syndrome coronavirus 2, UniProt P0DTD1). Description: biochemical. Conditions: read-out: % of control remaining. On the set-up: FRET-quenched peptide (Pro3) cleavage by PLpro, 10 min pre-incubation, slope over 20 min, normalised to no-compound control.
Assay [2] concerns the target T1, SARS-CoV-2 PLpro (nsp3 1564–1878). Put plainly: biochemical. On the set-up: FRET-quenched peptide (Pro3) cleavage by PLpro, 10 min pre-incubation, slope over 20 min, normalised to no-compound control. Conditions: read-out: % of control remaining. This is another data set of the same source.

With `COc1ccc2nc3n[nH]c(C)c3c(NCCOCCO)c2c1` [Ras/Rac Transformation Blocker, SCH 51344], the remaining activity at 1.25 µM in assay [1] (Well no.=2619, low concentration screen) amounted to 96.5%. For the same molecule, in assay [2] (Well no.=2619, high concentration screen), the remaining activity at 3.75 µM is 101%.

Consider `C#CCN[C@@H]1CCc2ccccc21` [Rasagiline mesylate], for which the remaining activity at 1.25 µM in assay [1] (Well no.=4766, low concentration screen) is 98.4%. Also, the remaining activity at 3.75 µM in assay [2] (Well no.=4766, high concentration screen) was 97.6%.

Consider `COC(=O)[C@H]1[C@H]2C[C@H]3c4[nH]c5ccccc5c4CCN3C[C@H]2CC[C@@H]1O` [Rauwolscine hydrochloride], for which the remaining activity at 1.25 µM in assay [1] (Well no.=1400, low concentration screen) is 100%. Further, the remaining activity at 3.75 µM in assay [2] (Well no.=1400, high concentration screen) amounted to 99%.

Consider `COC(=O)[C@H]1[C@H]2C[C@H]3c4[nH]c5ccccc5c4CCN3C[C@H]2CC[C@@H]1O` [Rauwolscine], for which the remaining activity at 1.25 µM in assay [1] (Well no.=3128, low concentration screen) amounted to 99%. Moreover, in assay [2] (Well no.=3128, high concentration screen), the remaining activity at 3.75 µM is 99.4%.

With `Nc1c(S(=O)(=O)O)cc(Nc2ccc(Nc3nc(Cl)nc(Nc4cccc(S(=O)(=O)O)c4)n3)c(S(=O)(=O)O)c2)c2c1C(=O)c1ccccc1C2=O` [Reactive Blue 2], the remaining activity at 1.25 µM in assay [1] was determined as 101%. Further, in assay [2], the remaining activity at 3.75 µM came out at 101%.

Take `O=C(NC(Cc1cc(=O)[nH]c2ccccc12)C(=O)O)c1ccc(Cl)cc1` (stereo not shown) [Rebamipide]: the remaining activity at 1.25 µM came to 99.1% in assay [1] (Well no.=2197, low concentration screen) and 95.1% in assay [1] (Well no.=6992, low concentration screen). Also, the remaining activity at 3.75 µM in assay [2] (Well no.=2197, high concentration screen) was found to be 98.5%; in assay [2] (Well no.=6992, high concentration screen), 98.9%.

For the molecule `C=C1C[C@@]23CC[C@H]4[C@@](C)(CCC[C@@]4(C)C(=O)O[C@@H]4O[C@H](CO)[C@@H](O)[C@H](O)[C@H]4O)[C@@H]2CC[C@]1(O[C@@H]1O[C@H](C)[C@@H](O)[C@H](O)[C@@H]1O[C@@H]1O[C@H](CO)[C@@H](O)[C@H](O[C@@H]2O[C@H](CO)[C@@H](O)[C@H](O)[C@H]2O)[C@H]1O)C3` [Rebaudioside C], the remaining activity at 1.25 µM in assay [1] (Well no.=8446, low concentration screen) came to 96%. The remaining activity at 3.75 µM in assay [2] (Well no.=8446, high concentration screen) was found to be 95.9%.

In the case of `CNC(=O)c1cnn(-c2nc(N)c3ncn([C@@H]4O[C@H](CO)[C@@H](O)[C@H]4O)c3n2)c1` [Regadenoson], the remaining activity at 1.25 µM in assay [1] (Well no.=6557, low concentration screen) stood at 106%; in assay [1] (Well no.=8367, low concentration screen), 96.6%. Besides, the remaining activity at 3.75 µM in assay [2] (Well no.=6557, high concentration screen) amounted to 103%; in assay [2] (Well no.=8367, high concentration screen), 95.1%.

Take `CC(Cc1ccccc1)(NC(=O)CN)c1ccccc1` (stereo not shown) [Remacemide hydrochloride]: in assay [1] (Well no.=5380, low concentration screen), the remaining activity at 1.25 µM is 99%. Further, in assay [2] (Well no.=5380, high concentration screen), the remaining activity at 3.75 µM worked out at 94.8%.

Take `CCN1CCC[C@H]1CNC(=O)c1c(OC)ccc(Br)c1OC` [Remoxipride]: in assay [1] (Well no.=1819, low concentration screen), the remaining activity at 1.25 µM is 100%. Further, in assay [2] (Well no.=1819, high concentration screen), the remaining activity at 3.75 µM stood at 99.4%.

In the case of `Cc1cccc(-c2[nH]ncc2-c2ccc3ncccc3n2)n1` [RepSox], the remaining activity at 1.25 µM in assay [1] (Well no.=5490, low concentration screen) amounted to 96.3%. Further, the remaining activity at 3.75 µM in assay [2] (Well no.=5490, high concentration screen) came out at 95.5%.

As for `CCOc1cc(CC(=O)N[C@@H](CC(C)C)c2ccccc2N2CCCCC2)ccc1C(=O)O` [Repaglinide], the remaining activity at 1.25 µM in assay [1] (Well no.=4817, low concentration screen) turned out to be 101%. In addition, in assay [2] (Well no.=4817, high concentration screen), the remaining activity at 3.75 µM was determined as 95.8%.

On to `CC(C)Cc1ccc([C@@H](C)C(=O)NS(C)(=O)=O)cc1` [Reparixin (L-lysine salt)], for which the remaining activity at 1.25 µM was 100% in assay [1] (Well no.=8059, low concentration screen) and 104% in assay [1] (Well no.=8125, low concentration screen). For the same molecule, the remaining activity at 3.75 µM was 99.6% in assay [2] (Well no.=8059, high concentration screen) and 104% in assay [2] (Well no.=8125, high concentration screen).

Consider `CC(C)Cc1ccc([C@@H](C)C(=O)NS(C)(=O)=O)cc1` [Reparixin], for which the remaining activity at 1.25 µM in assay [1] (Well no.=7277, low concentration screen) turned out to be 99.5%; in assay [1] (Well no.=8501, low concentration screen), 106%. Moreover, the remaining activity at 3.75 µM in assay [2] (Well no.=7277, high concentration screen) turned out to be 99.9%; in assay [2] (Well no.=8501, high concentration screen) it was 106%.

Turning to `CCOC(=O)C1=CCCC[C@H]1S(=O)(=O)Nc1ccc(F)cc1Cl` [Resatorvid], the remaining activity at 1.25 µM in assay [1] (Well no.=8421, low concentration screen) turned out to be 90.4%. In addition, the remaining activity at 3.75 µM in assay [2] (Well no.=8421, high concentration screen) is 90.5%.

As to `COC(=O)[C@H]1[C@H]2C[C@@H]3c4[nH]c5cc(OC)ccc5c4CCN3C[C@H]2C[C@@H](OC(=O)c2cc(OC)c(OC)c(OC)c2)[C@@H]1OC` [Reserpine], the remaining activity at 1.25 µM in assay [1] (Well no.=3833, low concentration screen) turned out to be 97%. For the same molecule, in assay [2] (Well no.=3833, high concentration screen), the remaining activity at 3.75 µM came out at 94.7%.
